Test results as given in ChEMBL document CHEMBL5715954, “Silencing c-Myc translation as a therapeutic strategy through targeting PI3Kδ and CK1ε in hematological malignancies” (Blood, 2017).

What was measured:
Design in all cases: scale not given: the % may be the effect or the level left
[1] = target: Bone morphogenetic protein receptor type-1A (Homo sapiens) (UniProt P36894); assay: Inhibition of human ALK3 assessed as enzyme activity at 1 uM using casein as substrate preincubated for 20 mins followed by [gamma-33P]-ATP addition and measured after 120 mins by radiometric Hot-SpotSM Kinase assay relative to control
Bone morphogenetic protein receptor type-1A (Homo sapiens), sequence (P36894 whole entry): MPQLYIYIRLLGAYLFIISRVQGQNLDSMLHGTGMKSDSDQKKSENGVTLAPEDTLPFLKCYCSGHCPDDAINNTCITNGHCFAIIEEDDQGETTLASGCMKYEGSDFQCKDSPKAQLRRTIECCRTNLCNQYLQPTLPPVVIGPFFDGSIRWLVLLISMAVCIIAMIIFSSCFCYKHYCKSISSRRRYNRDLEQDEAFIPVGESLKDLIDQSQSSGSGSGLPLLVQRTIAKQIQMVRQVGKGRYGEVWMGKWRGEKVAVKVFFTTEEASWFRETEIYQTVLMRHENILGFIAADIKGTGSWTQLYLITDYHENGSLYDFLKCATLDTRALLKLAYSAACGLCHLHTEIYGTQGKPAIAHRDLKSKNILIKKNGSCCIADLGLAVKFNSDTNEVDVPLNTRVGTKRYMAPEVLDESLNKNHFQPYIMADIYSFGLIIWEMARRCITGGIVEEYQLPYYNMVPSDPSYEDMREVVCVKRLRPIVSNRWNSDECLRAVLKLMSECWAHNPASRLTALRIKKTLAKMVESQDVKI

[2] = target: Mitogen-activated protein kinase 1 (Homo sapiens) (UniProt P28482); assay: Inhibition of human ERK2 assessed as enzyme activity at 1 uM using myelin basic protein as substrate preincubated for 20 mins followed by [gamma-33P]-ATP addition and measured after 120 mins by radiometric Hot-SpotSM Kinase assay relative to control
[3] = target: T1, Serine/threonine-protein kinase Nek5 (Homo sapiens) (UniProt Q6P3R8); assay: Inhibition of human NEK5 assessed as enzyme activity at 1 uM using myelin basic protein as substrate preincubated for 20 mins followed by [gamma-33P]-ATP addition and measured after 120 mins by radiometric Hot-SpotSM Kinase assay relative to control
T1 sequence (whole entry): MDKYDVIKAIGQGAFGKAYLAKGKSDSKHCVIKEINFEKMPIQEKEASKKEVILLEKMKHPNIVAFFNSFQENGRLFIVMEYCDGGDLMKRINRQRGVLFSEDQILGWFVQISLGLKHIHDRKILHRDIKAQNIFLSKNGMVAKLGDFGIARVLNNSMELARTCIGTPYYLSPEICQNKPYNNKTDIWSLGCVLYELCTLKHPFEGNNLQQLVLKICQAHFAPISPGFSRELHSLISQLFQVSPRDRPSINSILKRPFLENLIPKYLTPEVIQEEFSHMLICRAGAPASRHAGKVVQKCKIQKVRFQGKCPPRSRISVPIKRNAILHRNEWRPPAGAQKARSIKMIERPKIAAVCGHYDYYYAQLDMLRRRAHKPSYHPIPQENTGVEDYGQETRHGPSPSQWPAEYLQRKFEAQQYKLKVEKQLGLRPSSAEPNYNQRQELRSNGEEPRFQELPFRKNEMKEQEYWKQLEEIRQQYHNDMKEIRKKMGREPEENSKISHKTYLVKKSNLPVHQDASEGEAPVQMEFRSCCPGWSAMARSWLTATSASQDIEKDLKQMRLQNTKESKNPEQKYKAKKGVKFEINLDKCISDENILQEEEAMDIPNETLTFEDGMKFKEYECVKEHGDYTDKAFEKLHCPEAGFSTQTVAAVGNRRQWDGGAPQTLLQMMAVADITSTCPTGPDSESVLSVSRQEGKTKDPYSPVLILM

[4] = target: CDK3/Cyclin E (Homo sapiens) (UniProt P24864+Q00526); assay: Inhibition of human CDK3/cyclin E assessed as enzyme activity at 1 uM using RB Protein as substrate preincubated for 20 mins followed by [gamma-33P]-ATP addition and measured after 120 mins by radiometric Hot-SpotSM Kinase assay relative to control; format: protein-complex assay
CDK3/Cyclin E (Homo sapiens), sequence (P24864 whole entry, looked up): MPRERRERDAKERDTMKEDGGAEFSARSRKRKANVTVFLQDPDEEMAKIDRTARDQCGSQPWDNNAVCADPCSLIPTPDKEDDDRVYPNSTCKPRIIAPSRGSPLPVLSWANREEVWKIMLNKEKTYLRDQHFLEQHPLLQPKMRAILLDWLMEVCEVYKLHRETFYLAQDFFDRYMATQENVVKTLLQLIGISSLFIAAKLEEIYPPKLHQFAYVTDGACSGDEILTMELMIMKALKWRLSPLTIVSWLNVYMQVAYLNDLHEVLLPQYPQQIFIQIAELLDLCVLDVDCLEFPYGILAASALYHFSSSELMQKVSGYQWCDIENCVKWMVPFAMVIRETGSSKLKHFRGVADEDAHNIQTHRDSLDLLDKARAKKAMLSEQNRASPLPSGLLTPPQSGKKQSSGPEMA
CDK3/Cyclin E (Homo sapiens), sequence (Q00526 whole entry, looked up): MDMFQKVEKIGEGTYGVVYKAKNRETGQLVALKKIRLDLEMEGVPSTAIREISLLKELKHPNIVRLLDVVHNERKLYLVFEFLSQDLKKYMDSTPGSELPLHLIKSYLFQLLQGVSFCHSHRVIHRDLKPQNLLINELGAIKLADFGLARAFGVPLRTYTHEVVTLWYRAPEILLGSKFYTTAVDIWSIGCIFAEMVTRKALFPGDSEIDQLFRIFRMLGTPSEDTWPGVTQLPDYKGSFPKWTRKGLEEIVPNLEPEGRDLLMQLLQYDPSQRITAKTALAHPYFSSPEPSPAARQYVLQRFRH

[5] = target: Serine/threonine-protein kinase SIK2 (Homo sapiens) (UniProt Q9H0K1); assay: Inhibition of human SIK2 assessed as enzyme activity at 1 uM using AMARAASAAALARRR as substrate preincubated for 20 mins followed by [gamma-33P]-ATP addition and measured after 120 mins by radiometric Hot-SpotSM Kinase assay relative to control
Serine/threonine-protein kinase SIK2 (Homo sapiens), sequence (Q9H0K1 whole entry, looked up): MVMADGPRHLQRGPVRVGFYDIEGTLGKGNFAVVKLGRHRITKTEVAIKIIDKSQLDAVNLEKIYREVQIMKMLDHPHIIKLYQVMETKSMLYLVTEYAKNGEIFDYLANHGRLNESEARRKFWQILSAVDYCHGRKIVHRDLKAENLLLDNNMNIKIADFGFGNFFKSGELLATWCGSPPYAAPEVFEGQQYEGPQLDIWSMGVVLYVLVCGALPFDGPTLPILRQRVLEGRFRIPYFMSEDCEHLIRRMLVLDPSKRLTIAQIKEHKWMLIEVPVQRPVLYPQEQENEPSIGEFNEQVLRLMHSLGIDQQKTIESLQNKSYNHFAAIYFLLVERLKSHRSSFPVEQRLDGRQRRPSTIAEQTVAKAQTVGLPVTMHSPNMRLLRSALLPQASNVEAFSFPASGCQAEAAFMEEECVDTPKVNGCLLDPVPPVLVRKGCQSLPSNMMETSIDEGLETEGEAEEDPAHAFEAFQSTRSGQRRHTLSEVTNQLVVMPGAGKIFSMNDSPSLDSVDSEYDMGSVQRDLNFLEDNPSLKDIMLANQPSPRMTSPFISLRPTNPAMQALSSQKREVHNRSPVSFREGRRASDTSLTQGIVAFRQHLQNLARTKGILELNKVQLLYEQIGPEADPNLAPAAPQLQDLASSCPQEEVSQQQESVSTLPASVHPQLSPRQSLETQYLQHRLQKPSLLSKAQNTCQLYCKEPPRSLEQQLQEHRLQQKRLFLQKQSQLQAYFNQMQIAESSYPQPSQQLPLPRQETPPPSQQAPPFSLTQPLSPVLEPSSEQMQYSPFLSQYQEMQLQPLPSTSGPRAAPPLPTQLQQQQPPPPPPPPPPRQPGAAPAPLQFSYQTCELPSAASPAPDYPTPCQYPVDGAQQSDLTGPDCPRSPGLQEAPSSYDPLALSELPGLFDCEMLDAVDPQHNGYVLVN

[6] = target: T2, Muscle, skeletal receptor tyrosine-protein kinase (Homo sapiens) (UniProt O15146); assay: Inhibition of human MUSK assessed as enzyme activity at 1 uM using myelin basic protein as substrate preincubated for 20 mins followed by [gamma-33P]-ATP addition and measured after 120 mins by radiometric Hot-SpotSM Kinase assay relative to control
T2 sequence (whole entry): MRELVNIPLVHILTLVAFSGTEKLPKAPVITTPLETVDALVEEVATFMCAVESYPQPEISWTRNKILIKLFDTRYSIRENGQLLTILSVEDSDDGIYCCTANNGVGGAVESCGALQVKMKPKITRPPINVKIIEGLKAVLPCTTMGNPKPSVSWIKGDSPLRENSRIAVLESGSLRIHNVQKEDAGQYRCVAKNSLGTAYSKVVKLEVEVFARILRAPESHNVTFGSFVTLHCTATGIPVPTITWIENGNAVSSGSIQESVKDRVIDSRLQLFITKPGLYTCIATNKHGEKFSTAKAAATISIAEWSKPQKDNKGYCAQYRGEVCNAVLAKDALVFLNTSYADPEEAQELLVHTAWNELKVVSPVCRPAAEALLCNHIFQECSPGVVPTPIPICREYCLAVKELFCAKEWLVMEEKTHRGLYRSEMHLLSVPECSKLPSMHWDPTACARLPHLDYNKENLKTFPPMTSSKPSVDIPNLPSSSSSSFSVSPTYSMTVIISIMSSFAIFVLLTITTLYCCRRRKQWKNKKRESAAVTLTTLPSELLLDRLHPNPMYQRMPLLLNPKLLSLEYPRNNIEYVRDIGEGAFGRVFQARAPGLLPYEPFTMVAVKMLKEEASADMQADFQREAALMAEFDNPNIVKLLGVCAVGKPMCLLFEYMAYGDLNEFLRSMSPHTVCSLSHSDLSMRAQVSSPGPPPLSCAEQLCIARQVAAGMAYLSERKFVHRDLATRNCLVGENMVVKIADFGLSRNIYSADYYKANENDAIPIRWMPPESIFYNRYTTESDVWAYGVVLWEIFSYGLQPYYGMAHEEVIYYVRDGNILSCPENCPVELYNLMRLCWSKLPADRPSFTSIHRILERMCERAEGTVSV

[7] = target: Fibroblast growth factor receptor 1 (Homo sapiens) (UniProt P11362); assay: Inhibition of human FGFR1 assessed as enzyme activity at 1 uM using poly[Glu:Tyr] (4:1) as substrate preincubated for 20 mins followed by [gamma-33P]-ATP addition and measured after 120 mins by radiometric Hot-SpotSM Kinase assay relative to control
Fibroblast growth factor receptor 1 (Homo sapiens), sequence (P11362 22-822 limits assumed): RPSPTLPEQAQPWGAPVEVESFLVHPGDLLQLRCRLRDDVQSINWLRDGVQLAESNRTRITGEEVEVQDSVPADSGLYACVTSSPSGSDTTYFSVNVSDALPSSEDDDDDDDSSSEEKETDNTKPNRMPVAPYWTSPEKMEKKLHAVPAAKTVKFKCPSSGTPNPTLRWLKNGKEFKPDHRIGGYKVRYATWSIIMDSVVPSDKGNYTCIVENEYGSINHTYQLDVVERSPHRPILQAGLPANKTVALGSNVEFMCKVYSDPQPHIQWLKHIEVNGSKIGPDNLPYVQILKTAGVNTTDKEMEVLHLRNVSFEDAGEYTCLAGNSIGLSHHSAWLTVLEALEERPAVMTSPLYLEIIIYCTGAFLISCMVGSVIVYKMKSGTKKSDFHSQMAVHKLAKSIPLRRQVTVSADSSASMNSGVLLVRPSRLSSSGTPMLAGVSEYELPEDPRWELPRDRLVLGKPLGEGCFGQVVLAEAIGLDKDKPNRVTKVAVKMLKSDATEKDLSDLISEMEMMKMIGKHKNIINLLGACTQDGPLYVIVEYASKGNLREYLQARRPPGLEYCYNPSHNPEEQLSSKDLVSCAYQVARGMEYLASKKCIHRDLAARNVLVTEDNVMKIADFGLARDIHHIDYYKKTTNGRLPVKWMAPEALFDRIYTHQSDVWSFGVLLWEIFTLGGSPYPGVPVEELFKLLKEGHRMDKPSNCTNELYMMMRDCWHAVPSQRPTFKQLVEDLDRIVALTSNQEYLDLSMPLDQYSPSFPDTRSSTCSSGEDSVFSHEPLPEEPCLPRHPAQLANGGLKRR

[8] = target: Macrophage-stimulating protein receptor (Homo sapiens) (UniProt Q04912); assay: Inhibition of human RON assessed as enzyme activity at 1 uM using KKSRGDYMTMQIG as substrate preincubated for 20 mins followed by [gamma-33P]-ATP addition and measured after 120 mins by radiometric Hot-SpotSM Kinase assay relative to control
Macrophage-stimulating protein receptor (Homo sapiens), sequence (Q04912 25-304 limits assumed): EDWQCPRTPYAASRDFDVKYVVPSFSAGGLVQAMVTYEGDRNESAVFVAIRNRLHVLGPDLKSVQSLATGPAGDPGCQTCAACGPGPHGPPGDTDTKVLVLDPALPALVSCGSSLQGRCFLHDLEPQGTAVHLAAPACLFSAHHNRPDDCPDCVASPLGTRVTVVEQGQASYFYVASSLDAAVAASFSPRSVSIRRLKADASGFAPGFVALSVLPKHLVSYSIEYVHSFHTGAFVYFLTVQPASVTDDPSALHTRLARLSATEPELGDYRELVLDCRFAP
Macrophage-stimulating protein receptor (Homo sapiens), sequence (Q04912 310-1400 limits assumed): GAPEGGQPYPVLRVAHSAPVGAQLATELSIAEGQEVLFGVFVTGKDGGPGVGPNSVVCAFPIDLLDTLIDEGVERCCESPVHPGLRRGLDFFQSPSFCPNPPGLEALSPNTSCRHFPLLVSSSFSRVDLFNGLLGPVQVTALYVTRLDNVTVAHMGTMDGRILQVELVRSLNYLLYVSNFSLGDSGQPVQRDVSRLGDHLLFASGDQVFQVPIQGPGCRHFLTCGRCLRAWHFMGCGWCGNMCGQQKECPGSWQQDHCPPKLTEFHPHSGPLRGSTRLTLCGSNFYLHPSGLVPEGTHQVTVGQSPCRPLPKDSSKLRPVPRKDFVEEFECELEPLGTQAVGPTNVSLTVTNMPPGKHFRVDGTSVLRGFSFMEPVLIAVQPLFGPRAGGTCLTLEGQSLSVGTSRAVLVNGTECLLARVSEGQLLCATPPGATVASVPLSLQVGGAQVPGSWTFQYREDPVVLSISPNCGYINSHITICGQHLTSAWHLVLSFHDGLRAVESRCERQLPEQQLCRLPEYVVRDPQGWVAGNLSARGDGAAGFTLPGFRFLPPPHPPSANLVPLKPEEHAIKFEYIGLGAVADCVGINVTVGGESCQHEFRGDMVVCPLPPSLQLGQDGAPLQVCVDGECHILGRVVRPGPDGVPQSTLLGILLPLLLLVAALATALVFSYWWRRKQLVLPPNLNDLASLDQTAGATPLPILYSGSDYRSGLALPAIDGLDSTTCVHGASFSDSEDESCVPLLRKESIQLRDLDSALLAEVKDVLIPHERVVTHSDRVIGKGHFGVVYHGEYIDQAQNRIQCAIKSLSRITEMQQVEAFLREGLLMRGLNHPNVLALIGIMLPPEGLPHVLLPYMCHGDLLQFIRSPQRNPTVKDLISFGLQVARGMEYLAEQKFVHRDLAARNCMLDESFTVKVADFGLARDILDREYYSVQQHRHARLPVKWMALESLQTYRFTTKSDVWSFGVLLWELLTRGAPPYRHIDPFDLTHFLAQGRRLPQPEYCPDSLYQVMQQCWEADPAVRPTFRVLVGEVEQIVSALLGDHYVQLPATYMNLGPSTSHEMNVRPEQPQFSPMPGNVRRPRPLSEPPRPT

[9] = target: Serine/threonine-protein kinase 32B (Homo sapiens) (UniProt Q9NY57); assay: Inhibition of human STK32B assessed as enzyme activity at 1 uM using myelin basic protein as substrate preincubated for 20 mins followed by [gamma-33P]-ATP addition and measured after 120 mins by radiometric Hot-SpotSM Kinase assay relative to control
Serine/threonine-protein kinase 32B (Homo sapiens), sequence (Q9NY57 whole entry): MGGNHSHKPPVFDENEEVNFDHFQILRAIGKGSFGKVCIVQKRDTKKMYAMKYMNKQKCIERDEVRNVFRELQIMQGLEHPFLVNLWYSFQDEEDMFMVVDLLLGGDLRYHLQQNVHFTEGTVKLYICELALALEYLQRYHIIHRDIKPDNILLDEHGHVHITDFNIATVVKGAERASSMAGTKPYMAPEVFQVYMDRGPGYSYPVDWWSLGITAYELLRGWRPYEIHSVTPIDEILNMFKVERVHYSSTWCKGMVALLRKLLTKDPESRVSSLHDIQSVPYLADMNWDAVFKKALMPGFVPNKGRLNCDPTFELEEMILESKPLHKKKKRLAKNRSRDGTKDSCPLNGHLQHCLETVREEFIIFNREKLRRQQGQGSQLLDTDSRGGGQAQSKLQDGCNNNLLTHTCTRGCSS

[10] = target: Homeodomain-interacting protein kinase 3 (Homo sapiens) (UniProt Q9H422); assay: Inhibition of human HIPK3 assessed as enzyme activity at 1 uM using myelin basic protein as substrate preincubated for 20 mins followed by [gamma-33P]-ATP addition and measured after 120 mins by radiometric Hot-SpotSM Kinase assay relative to control
[11] = target: Mitogen-activated protein kinase kinase kinase 1 (Homo sapiens) (UniProt Q13233); assay: Inhibition of human MEKK1 assessed as enzyme activity at 1 uM using myelin basic protein as substrate preincubated for 20 mins followed by [gamma-33P]-ATP addition and measured after 120 mins by radiometric Hot-SpotSM Kinase assay relative to control

With `CC[C@H](Nc1ncnc2[nH]cnc12)c1nc2cccc(F)c2c(=O)n1-c1ccccc1` the Activity [1] was 105%, the Activity [2] was 93.6% and the Activity [3] was 111%. The Activity [4] was 86.8%, the Activity [5] was 98.5% and the Activity [6] was 94.4%. For the same molecule, the Activity [7] was 98%, the Activity [8] was 108% and the Activity [9] was 120%. The Activity [10] was 108% and the Activity [11] was 101%.
`C[C@H](Nc1ncnc2nc[nH]c12)c1cc2cccc(Cl)c2c(=O)n1-c1ccccc1` was tested, and the Activity [1] was 101%, the Activity [2] was 97.2% and the Activity [3] was 92.8%. For the same molecule, the Activity [4] was 88%, the Activity [5] was 94% and the Activity [6] was 95.8%. It also gave an Activity [7] of 95.7%, an Activity [8] of 103% and an Activity [9] of 116%. The Activity [10] was 105% and the Activity [11] was 107%.
Work on `CC(C)Oc1ccc(-c2nn([C@@H](C)c3oc4ccc(F)cc4c(=O)c3-c3cccc(F)c3)c3ncnc(N)c23)cc1F` [UMBRALISIB] yielded an Activity [1] of 89.5%, an Activity [2] of 94.2% and an Activity [3] of 110%. The Activity [4] was 84.3%, the Activity [5] was 95.4% and the Activity [6] was 97.5%. It also gave an Activity [7] of 99.5%, an Activity [8] of 104% and an Activity [9] of 114%. It also gave an Activity [10] of 103% and an Activity [11] of 101%.
